Test results: patent publication US20240238362A1, “ANTI-OBESITY PEPTIDES AND USES THEREOF” (Arizona Board of Regents on Behalf of the University of …, priority 2020, published 2024)
Entries after “also recorded” stand apart in the source; their conditions may differ.

What was measured:
3T3-LI mature adipocytes = test: Oil Red O staining of lipid accumulation in adipocytes; format: cell-based, murine; details: for number and size / morphology of lipid droplets vs. non-treated control: Oil Red O micrographs, peptides at 100 μM, Day 21, three times per week for three weeks; for reduction of lipid accumulation / lipid contents (in words): murine-based in vitro systems, mature adipocytes; for decrease in degree of lipid accumulation: quantitative Oil Red O analysis, Day 21
Protocol: FIG. 2A-G: Representative photomicrographs showing Oil Red O-stained mature adipocytes treated with peptides at 100 μM (Day 21). H: Quantitative analysis of the lipids accumulated in the adipocytes (Day 21). Control absorbance: 0.526 (Red line). I: Relative cell counts on day 21.
The effects of the minimal short peptides in blocking lipid accumulation in adipocytes were compared with their parent full-length peptide. After generating five different 3 amino acid fragments (KGG, GGR, GRA, RAK, and AKD) from the original ATS peptide (KGGRAKD (SEQ ID NO:1)), each peptide was administered to 3T3-LI pre-adipocytes in five varying concentrations. Peptides were treated to the adipocytes three times per week for three weeks. Oil Red O staining was utilized to assess the lipid contents in mature adipocytes in culture. The morphological characteristics of 3T3-LI mature adipocytes were observed by microscopy. […] Furthermore, the lipids were quantitatively analyzed. […] At the end point, the cell number was almost the same across the treatment groups, meaning that the reduction in lipid accumulation is not a consequence of toxicity of the peptides (FIG. 2I).
The number of viable cells is counted prior to Oil Red O staining using Cell Counting Kit 8 (Dojindo). This cell viability study allows one to determine potential toxicities of the peptides and compensate for cell number variation-causing artifacts. Oil Red O is dissolved in isopropanol at […] to create a working solution. 12 ml of Oil Red O working solution is mixed with 8 ml dH2O and incubated for 10 minutes. This solution is then filtered using a 0.2 μm syringe filter. Adipocytes seeded on 96-well plates are washed with PBS twice. 10% formaldehyde is added for initial fixation and the plates are incubated for at least 30 minutes. The formaldehyde is removed and the cells are once again washed twice, this time with dH2O. 60% isopropanol is added to each well. The plates are incubated for 5 minutes. The isopropanol is removed from the wells and replaced with Oil Red O working solution. The plates are incubated for an additional 10 minutes. The Oil Red O solution is removed and washed four times with dH2O. Lastly, digital micrographs of the lipid droplets in adipocytes are taken using a light microscope. After the staining protocol, all plates are washed three times with 60% isopropanol. Each time, 5 minutes of gentle rocking was used. The Oil Red O is extracted with 100% isopropanol with gentle rocking for 5 minutes. 200 μl isopropanol per well is used as a background to measure absorbance at 492 nm using a BioTek microplate reader.

[1] = test system: DIO mice, obesity progression model (OPM); test: Body weight in pre-obese mice fed high fat diet (obesity progression model, OPM); format: in vivo; details: for anti-obesity efficacy (body weight): oral administration
Protocol: (§1) FIG. 3A-H: IP Preobese Body Weight. Relative body weight measurements for IP injected pre-obese mice. I-J: Body weight change. Changes in body weight compared using HFD control group as baseline value A1-F1: GTT. Blood glucose levels of peptide groups at endpoint, post-glucose injection (after 16 h fasting). A2-F2: ITT. Blood glucose levels of peptide groups at endpoint, post-insulin injection (after 6 h fasting).
as §1, with “4A-F: SC Pre-obese” for “3A-H: IP Preobese”, “SC” for “IP”, “G-H:” for “I-J:”, “value.” for “value”
(§2) FIG. 7A-F: Oral/Feeding Pre-obese Body Weight. Relative body weight measurements for orally administered pre-obese mice. A1-F1: GTT. Blood glucose levels at endpoint, post-glucose injection (after 16 h fasting). A2-F2: ITT. Blood glucose levels at endpoint, post-insulin injection (after 6 h fasting).
Prior to oral administration, peptides were administered to DIO mice via intraperitoneal (IP) and subcutaneous (SC) injections. This study was divided into two phases:
(§3) In the first phase, peptides were tested on pre-obese mice that were being fed high fat diet (HFD) to induce obesity (obesity progression model, OPM). In the second phase, these peptides were given to mice that had already developed obesity (obesity model, OM). […] As the activity of these three peptides varies depending on the injection route and the disease status, all three peptides, GGR, RAK, and AKD, were tested by oral administration.
Prior to oral administration, GGR, RAK, AKD, full-length ATS, and scrambled RKG peptides were administered to OPM mice via IP and SC injections to further screen an ideal peptide composition. PBS was included as a vehicle group. GGR, RAK, and AKD peptides were discovered to impede body weight gain in OPM mice. GGR and RAK were effective when given IP injections and AKD was effective by SC injections (FIGS. 3, 4).

[2] = test system: DIO mice, obesity model (OM); test: Body weight in mice that had already developed obesity (obesity model, OM); format: in vivo; details: OM (post-obese) mice
Protocol: as §1, with “5A-F:” for “3A-H:”, “Post-obese” for “Preobese”, “post-obese” for “pre-obese”, “G-H:” for “I-J:”, “value.” for “value”
as §1, with “6A-F: SC Post-obese” for “3A-H: IP Preobese”, “SC” for “IP”, “post-obese” for “pre-obese”, “G-H:” for “I-J:”, “value. A1-D1,F1:” for “value A1-F1:”, “A2-D2,F2:” for “A2-F2:”
as §2, with “8A-F:” for “7A-F:”, “Post-obese” for “Pre-obese”, “post-obese” for “pre-obese”
as §3
The second phase signified the post-obesity stage, where the same methods from phase 1 were used on OM mice.

prohibitin = target: T1, prohibitin (Mus musculus, UniProt P67778); test: ATS/prohibitin binding by ATS magnetic bead immunoprecipitation and western blot; details: fractionated proteins from adipocytes incubated with ATS magnetic beads, western blot
T1 construct: Fractionated proteins isolated from adipocytes were incubated with the ATS magnetic beads; endogenous in cells; probably 3T3-L1
T1 sequence (P67778 2-272 limits assumed): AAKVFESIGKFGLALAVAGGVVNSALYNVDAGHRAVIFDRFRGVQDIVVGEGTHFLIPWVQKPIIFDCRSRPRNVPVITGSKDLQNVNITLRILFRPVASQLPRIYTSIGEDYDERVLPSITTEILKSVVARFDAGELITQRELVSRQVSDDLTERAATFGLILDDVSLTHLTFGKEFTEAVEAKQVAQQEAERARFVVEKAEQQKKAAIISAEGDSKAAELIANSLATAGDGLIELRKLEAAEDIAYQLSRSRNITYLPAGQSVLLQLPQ
Description: FIG. 1A: ATS/prohibitin binding determined by immunoprecipitation and western blot. FIG. 1B: Location and degree of prohibitin expression in pre- or mature adipocytes. PM, plasma membrane; Cyt, Cytoplasm. C: Confocal micrographs showing the location of prohibitin in mature- or pre-adipocytes.
It was confirmed that prohibitin shifts its location to the cell membrane as adipogenesis progresses and ATS binds to prohibition. The ATS/prohibitin binding was verified in pre- or mature adipocytes (Won, Y. W. et al. Nat Mater 13, 1157-1164, (2014)). Fractionated proteins isolated from adipocytes were incubated with the ATS magnetic beads and the protein captured by ATS was identified by western blotting. […] Prohibitin is observed in several intracellular locations at varying expression levels depending on the degree of adipogenesis (Wang, P. et al. Cell Mol Life Sci 61, 2405-2417, (2004); Patel, N. et al. Proceedings of the National Academy of Sciences of the United States of America 107, 2503-2508, (2010)). The degree and location of prohibitin expression in pre- or mature adipocytes was determined. […] Confocal microscopy also verified the prohibitin expression on the cell membrane of mature adipocytes (FIG. 1C). High-level prohibitin expression on the cell membrane of mature adipocytes is important to the ATS/prohibitin interaction.

[3] = test system: epididymal fat tissues of DIO mice; test: Histological analysis of fat pads (adipocyte number and size); format: in vivo
Protocol: FIG. 9. Histological analysis fat pads. An automated system detected and counted adipocytes (yellow line). Adipocyte number and size: average of 3 hpf images from 2 mice (total 6 images/group).
GGR, RAK, and AKD peptides were tested in OPM and OM mice by oral administration. […] In obesity progression, adipocytes increase in both number and size due to escalating lipid accumulation (Parlee, S. D., et al., Methods Enzymol 537, 93-122, (2014)). Using the methods described above, abdominal fat pads of GGR, RAK, AKD, or PBS-treated DIO mice were histologically analyzed. Epididymal fat tissues were harvested from two mice per experimental group. All samples were fixed in 4% paraformaldehyde, H&E-stained, and imaged. At a 10× magnification, adipocyte cell counting was performed on the digital slide images using an automated adipocyte counting macro with the ImageJ software. A default thresholding method was used and [cell] sizing boundaries of 40-40,000 were set. Limitations of the segmentation tool led to some erroneous selections or regions of interest (ROI), which were manually corrected by adding or erasing lines. The number of cells per representative field were then determined using the ROI manager in ImageJ. Two or three high power fields (hpf) per tissue and two tissue samples per group were analyzed to reduce variability. Average cell count for each group was calculated accordingly. Areas of all adipocytes of interest were measured using the ROI measurement tool (ImageJ) and average area per cell was calculated accordingly.
The primary function of adipocytes is to store energy in the form of lipids. The volume of lipid stored in an adipocyte cell increases as the third power of the diameter. Because mature adipocytes are composed of large lipid droplets that are surrounded by very thin cytoplasmic layers, the increase in volume of an adipocyte cell likely indicates increased lipid storage. Thus, smaller adipocyte size/area translates to reduced lipid accumulation.

Substance	number and size / morphology of lipid droplets vs. non-treated control (3T3-LI mature adipocytes)	reduction of lipid accumulation / lipid contents (in words) (3T3-LI mature adipocytes)	decrease in degree of lipid accumulation (3T3-LI mature adipocytes)	prevention of body weight gain ([2]; IP injections)	prevention of body weight gain ([2]; SC injections)	prevention of body weight gain ([1]; IP injections)	also measured
AKD	smaller than those in the non-treated control	able to reduce lipid contents in mature Adipocytes; also recorded: effective in reducing lipid accumulation	approximately 20%	–	–	–	prevention of body weight gain ([1]; SC injections): best working peptide; also recorded: effective; anti-obesity efficacy (body weight) [1]: efficacious over GGR
GGR	smaller than those in the non-treated control	able to reduce lipid contents in mature Adipocytes; also recorded: effective in reducing lipid accumulation	approximately 20%	positive effects on prevention of body weight gain	effective	positive effects on prevention of body weight gain; also recorded: effective	–
GRA	moderate differences in the morphology of lipid droplets	–	–	–	–	–	–
KGG	moderate differences in the morphology of lipid droplets	–	–	–	–	–	–
KGGRAKD (SEQ ID NO:1) [ATS, parent full-length peptide, reference compound]	smaller than those in the non-treated control	–	–	–	–	–	ATS/prohibitin binding (prohibitin): specifically binds to prohibitin
RAK	smaller than those in the non-treated control	able to reduce lipid contents in mature Adipocytes; also recorded: effective in reducing lipid accumulation	approximately 20%	positive effects on prevention of body weight gain	effective	positive effects on prevention of body weight gain; also recorded: effective	activity by histological analysis of the fat pads ([3]; DIO mice): more active than GGR; also recorded: highest efficacy; average cell count per field ([3]; H&E-stained epididymal fat, 10× magnification, among GGR, RAK, AKD, PBS groups): highest average cell count per field; average adipocyte area per cell ([3]; H&E-stained epididymal fat, among GGR, RAK, AKD, PBS groups): lowest average adipocyte area per cell; anti-obesity efficacy (body weight) ([2]; oral administration): has anti-obesity efficacy in both models; anti-obesity efficacy (body weight) [1]: efficacious over GGR; also recorded: has anti-obesity efficacy in both models
RKG [reference compound]	–	–	–	did not show meaningful efficacy over the vehicle group; also recorded: no anti-obesity effects	no anti-obesity effects	did not show meaningful efficacy over the vehicle group; also recorded: no anti-obese effects; also recorded: no anti-obesity effects	prevention of body weight gain ([1]; SC injections): no anti-obese effects; also recorded: no anti-obesity effects
